Measured values published in patent publication US20210196714A1, “COMPOSITIONS AND METHODS FOR TREATING DISORDERS CHARACTERIZED WITH ABERRANT RAS/MAPK SIGNALING” (Duke University, priority 2018, published 2021).
“Also recorded” adds a separate entry of the source.

What was measured:
ERK2 = ERK2 (Homo sapiens, UniProt P28482); conditions: see WO 2002064586; cited from earlier work
kdm6a morphants = assay: Brain cell proliferation (pHH3 immunostaining) in kdm6a morphants; assay type: in vivo, zebrafish; conditions: 100 nM, 2 dpf, listed as dmDf
From the text: (§1) Intellectual disability represents a major phenotype in KS, with some studies reporting almost 90% of patients to be affected (see, Wessels, M. W., et al. Clin Dysmorphol 11, 95-102 (2002)). […] Previous studies have shown that defects in proliferation in the developing zebrafish brain can be a proxy for neurodevelopmental and neurocognitive traits, especially in the context of microcephaly (see, Borck, G. et al. Genome Res 25, 609 (2015); Brooks, S. S. et al. Genetics 198, 723-33 (2014); O'Rawe, J. A. et al. Am J Hum Genet 97, 922-32 (2015); Wortmann, S. B. et al. Am J Hum Genet 96, 245-57 (2015)), a phenotype reported commonly in KS (see, Matsumoto, N. & Niikawa, N. Am J Med Genet C Semin Med Genet 117C, 57-65 (2003)).
(§2) For convergence and extension (CE) phenotyping, embryos were scored as described (see, Leitch, C. C. et al. Nat Genet 40, 443-8 (2008)) at the 8-10 somite stage, and images were captured using an AZ100 microscope and NIS Elements software (Nikon). […] The distance between Meckel's (MK) and ceratohyal (CH) cartilages was measured on ventral bright field images with Image J (NIH). […] Fluorescence signal on embryo heads was imaged with the Nikon AZ100 microscope and DS-Qi1MC digital camera using […] Z-stacks to generate extended depth of focus images. Cell numbers were quantified using the ImageJ ICTN plugin (NIH). […]

zebrafish embryos = assay: Toxicity test in zebrafish embryos; assay type: in vivo
Procedure: (§3) FIG. 1: In vivo screen using BRAF/MEK/ERK inhibitors. (a) Flow chart of the experimental design. […] For the primary screen, 24 compounds were assessed for their ability to rescue the convergent-extension (CE) phenotype of zebrafish kmt2d morphants, followed by rescue tests of additional phenotypes (jaw and brain) within the kmt2d morphant, or CE of additional genetic KS models. (b) Toxicity results. Twenty embryos at the 8-cell stage were incubated in egg water containing 100 nM, 1 μM, and 10 μM of the 26 compounds. After 24 hours, larvae were scored for toxicity. Black bar: death; grey bar: abnormal morphology; white bar: nontoxic. (c) Embryos were injected with kmt2d-MO at the 2-4 cell stage and soaked in egg water containing 100 nM of each compound at the 8-cell stage. After 24 hours, larvae were scored for CE. […] The efficacy of each compound was determined by a chi-square test in which Class I and Class II were considered together.
(§4) To guard against possible bias, the tool and negative control compounds were interspersed across the experiment and the zebrafish phenotyping team was blinded to the identity of each compound. Typical of small molecule storage, each of the 29 compounds was dissolved in dimethyl sulfoxide (DMSO). […] Next, each compound was diluted serially with egg water and toxicity tested by assaying the percentage of abnormal or dead embryos across three different concentrations (10 μM, 1 μM, 100 nM; FIG. 1B).

[1] = Toxicity test in zebrafish embryos; assay type: in vivo; conditions: zebrafish, in vivo; read-out: LC50 (lethal concentration required to kill 50% of the population)
Procedure: as §3, §4

[2] = system: rap1- and kdm6a-depleted zebrafish; assay: CE defects caused by loss of rap1 and kdm6a; assay type: in vivo
Procedure: FIG. 4: Compound 8 ameliorates the CE and jaw defects caused by loss of rap/and kdm6a. (a) gRNA targeting both zebrafish rap1a and rap1b were injected into embryos at the 1-cell stage with Cas9 protein. Larvae were incubated with compound 8 (100 nM) at the 8-cell stage and scored for micrognathia. 5 dpf larvae were stained with Alcian blue to assess the layout of the jaw cartilage. In comparison to control embryos (top), rap1-CRISPR embryos have smaller jaws. […] (b) Quantitative measurement of the distance between MK and CH cartilages. (c) Larvae were scored for CE (n>30 for each concentration). (d) 5 dpf embryos were stained with Alcian blue to assess the layout of jaw cartilage. […] (e) Quantitative measurement of the distance between MK and CH cartilages. *p<0.05; ***p<0.001. […]
as §2

kmt2d-CRISPR embryos = assay: Brain cell proliferation (pHH3 immunostaining) in kmt2d-mosaic mutants; assay type: in vivo, zebrafish; conditions: 100 nM, 2 dpf, listed as dmDf
From the text: as §1, §2

Chain of ERK2 (P28482 whole entry, species assumed): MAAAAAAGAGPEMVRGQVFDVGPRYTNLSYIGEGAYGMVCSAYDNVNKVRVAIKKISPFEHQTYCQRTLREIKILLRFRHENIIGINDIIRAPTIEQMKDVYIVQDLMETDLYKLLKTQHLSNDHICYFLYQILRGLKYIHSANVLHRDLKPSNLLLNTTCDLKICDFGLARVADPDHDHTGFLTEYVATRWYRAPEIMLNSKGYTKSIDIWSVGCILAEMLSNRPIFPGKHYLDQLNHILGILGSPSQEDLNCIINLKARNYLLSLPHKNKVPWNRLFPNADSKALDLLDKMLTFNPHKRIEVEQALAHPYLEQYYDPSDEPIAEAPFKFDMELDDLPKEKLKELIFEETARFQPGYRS

## CC[C@@H](CO)Nc1ncc(C)c(-c2c[nH]c(C(=O)N[C@H](CO)c3cccc(Cl)c3)c2)n1 [Compound 2, N-((S)-1-(3-chlorophenyl)-2-hydroxyethyl)-4-(2-(((S)-1-hydroxybutan-2-yl)amino)-5-methylpyrimidin-4-yl)-1H-pyrrole-2-carboxamide]
ERK2
  ERK2 inhibitor potency: potent

## CC(C)c1nc(-c2cccc(NS(=O)(=O)c3c(F)cccc3F)c2F)c(-c2ccnc(N)n2)s1 [Compound 8, desmethyl-Dabrafenib]
kdm6a morphants
  total number of proliferating (pHH3+) cells in brain: significantly increases pHH3+ proliferating cells; also recorded: restored the total number of proliferating cells to wild type levels
Zebrafish embryos; 100 nM or 500 nM
  toxicity at the concentrations used for pMEK test: lack of toxicity
Zebrafish embryos; 100 nM, 24 hours
  toxicity: pathology (abnormal or dead embryos): safe
Zebrafish embryos; LC50 vs 0.26 nM exposure
  LC50 relative to effective in vivo exposure (greater by): four
Zebrafish embryos; zebrafish, in vivo
  overt pathologies in zebrafish embryos: induced no overt pathologies
[1]
  LC50 at 24 h: 1 to 10 µM
[2]
  CE defects: ameliorates
kmt2d-CRISPR embryos
  total number of proliferating (pHH3+) cells in brain: can be rescued; also recorded: restored the total number of proliferating cells to wild type levels
